# Assay results taken from patent US10807952B2 (Achillion Pharmaceuticals, Inc., priority 2015, dated 2020).
# Where a name gives a salt, the structure may show the parent alone.
# Target: Human Factor D (Homo sapiens (Human), UniProt P00746)
# Assay: Human Factor D assay (Z-L-Lys-SBzl / DTNB, absorbance at 405 nm)
# Type: biochemical
# Settings: Table 3; Human Factor D 80 nM, assay of Example 13
# Protocol: Human Factor D (purified from human serum, Complement Technology, Inc.) at 80 nM final concentration was incubated with test compound at various concentrations for 5 minutes at room temperature in 50 mM Tris, 1M NaCl, pH 7.5. A synthetic substrate Z-L-Lys-SBzl and DTNB (Ellman's reagent) were added to final concentrations of 100 μM each. […] IC50 values were calculated by nonlinear regression of complement Factor D reaction rates as a function of test compound concentration.
# Chain of Human Factor D (P00746 26-253): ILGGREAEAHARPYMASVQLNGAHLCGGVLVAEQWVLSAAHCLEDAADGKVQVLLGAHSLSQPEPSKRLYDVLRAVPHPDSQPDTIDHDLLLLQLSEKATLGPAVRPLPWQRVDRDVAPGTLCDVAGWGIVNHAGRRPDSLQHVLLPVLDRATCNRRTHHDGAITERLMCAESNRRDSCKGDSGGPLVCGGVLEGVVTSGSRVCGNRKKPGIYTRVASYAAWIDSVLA
row,Structure (SMILES),IC50 [nM]
1,"CC(=O)n1cc(CC(=O)N2C[C@H](F)C[C@H]2C(=O)Nc2cccc(-c3ccccc3Cl)c2F)c2ccc(-c3cnc(C)nc3)cc21 [Compound 60, (2S,4R)-1-(2-(1-acetyl-6-(2-methylpyrimidin-5-yl)-1H-indol-3-yl)acetyl)-N-(2′-chloro-2-fluorobiphenyl-3-yl)-4-fluoropyrrolidine-2-carboxamide]",< 1000
2,"CC(=O)n1cc(CC(=O)N2C[C@H](F)C[C@H]2C(=O)Nc2cccc(Br)n2)c2ccc(-c3cnc(C)nc3)cc21 [Compound 61, (2S,4R)-1-(2-(1-acetyl-6-(2-methylpyrimidin-5-yl)-1H-indol-3-yl)acetyl)-N-(6-bromopyridin-2-yl)-4-fluoropyrrolidine-2-carboxamide]",< 1000
3,"NC(=O)c1nn(CC(=O)N2C[C@H](F)C[C@H]2C(=O)Nc2cccc(-c3ccc4nc(C(=O)O)[nH]c4c3Cl)c2F)c2ccccc12 [Compound 62, 6-(3-((2S,4R)-1-(2-(3-carbamoyl-1H-indazol-1-yl)acetyl)-4-fluoropyrrolidine-2-carboxamido)-2-fluorophenyl)-7-chloro-1H-benzo[d]imidazole-2-carboxylic acid]",< 1000
4,"CC(C)(C)OC(=O)N=S(C)(=O)c1cccc(-c2cccc(NC(=O)[C@@H]3C[C@@H](F)CN3C(=O)Cn3nc(C(N)=O)c4ccccc43)c2F)c1 (stereo partly drawn) [Compound 64, tert-butyl ((3′-((2S,4R)-1-(2-(3-carbamoyl-1H-indazol-1-yl)acetyl)-4-fluoropyrrolidine-2-carboxamido)-2′-fluoro-[1,1′-biphenyl]-3-yl)(methyl)(oxo)-[…]^6-sulfanylidene)-[…]^4-azanecarboxylate]",1000 to 10000
5,"CS(=N)(=O)c1cccc(-c2cccc(NC(=O)[C@@H]3C[C@@H](F)CN3C(=O)Cn3nc(C(N)=O)c4ccccc43)c2F)c1 (stereo partly drawn) [Compound 65, 1-(2-((2S,4R)-4-fluoro-2-(2-fluoro-3′-(S-methylsulfonimidoyl)biphenyl-3-ylcarbamoyl)pyrrolidin-1-yl)-2-oxoethyl)-1H-indazole-3-carboxamide]",1000 to 10000
6,"NC(=O)c1nn(CC(=O)N2C[C@H](F)C[C@H]2C(=O)Nc2cccc(-c3ccccc3Cl)c2F)c2cn[nH]c12 [Compound 66, 1-(2-((2S,4R)-2-(2′-chloro-2-fluorobiphenyl-3-ylcarbamoyl)-4-fluoropyrrolidin-1-yl)-2-oxoethyl)-1,4-dihydropyrazolo[4,3-c]pyrazole-3-carboxamide]",< 1000
7,"NC(=O)c1nn(CC(=O)N2C[C@H](F)C[C@H]2C(=O)Nc2cccc(-c3ccc4nonc4c3)c2F)c2ccccc12 [Compound 68, 1-(2-((2S,4R)-2-(3-(benzo[c][1,2,5]oxadiazol-5-yl)-2-fluorophenyl-carbamoyl)-4-fluoropyrrolidin-1-yl)-2-oxoethyl)-1H-indazole-3-carboxamide]",< 1000
8,"CC(=O)c1cn(CC(=O)N2C[C@H](F)C[C@H]2C(=O)Nc2cccc(Br)n2)c2ccc(S(C)(=O)=NC(=O)OC(C)(C)C)cc12 (stereo partly drawn) [Compound 69, tert-butyl ((3-acetyl-1-(2-((2S,4R)-2-((6-bromopyridin-2-yl)carbamoyl)-4-fluoropyrrolidin-1-yl)-2-oxoethyl)-1H-indol-5-yl)(methyl)(oxo)-[…]^6-sulfanylidene)-[…]^4-azanecarboxylate e( )]",< 1000
9,"CC(=O)c1cn(CC(=O)N2C[C@H](F)C[C@H]2C(=O)Nc2cccc(Br)n2)c2ccc(S(C)(=N)=O)cc12 (stereo partly drawn) [Compound 70, (2S,4R)-1-(2-(3-Acetyl-5-(S-methylsulfonimidoyl)-1H-indol-1-yl)acetyl)-N-(6-bromopyridin-2-yl)-4-fluoropyrrolidine-2-carboxamide hydrochloride]",< 1000
10,"NC(=O)c1nn(CC(=O)N2C[C@H](F)C[C@H]2C(=O)Nc2cccc(-c3n[nH]c4ccsc34)c2F)c2ccccc12 [Compound 71, 1-(2-((2S,4R)-4-Fluoro-2-((2-fluoro-3-(1H-thieno[3,2-c]pyrazol-3-yl)phenyl)carbamoyl)pyrrolidin-1-yl)-2-oxoethyl)-1H-indazole-3-carboxamide]",< 1000
11,"Cc1cc2c(s1)c(C(=N)N)nn2CC(=O)N1C[C@H](F)C[C@H]1C(=O)Nc1cccc(-c2ccccc2Cl)c1F [Compound 73, (2S,4R)-1-(2-(3-carbamimidoyl-5-methyl-1H-thieno[3,2-c]pyrazol-1-yl)acetyl)-N-(2′-chloro-2-fluorobiphenyl-3-yl)-4-fluoropyrrolidine-2-carboxamide]",< 1000

# Same assay, conditions: Table 4; Human Factor D 80 nM, assay of Example 13
row,Structure (SMILES),IC50 [nM]
1,"COC(=O)c1cc(-c2cccc(NC(=O)[C@@H]3C[C@@H](F)CN3C(=O)Cn3nc(C(N)=O)c4ccccc43)c2F)cc2[nH]c(NC(=O)OC(C)(C)C)nc12 [Compound 75, methyl 2-((tert-butoxycarbonyl)amino)-6-(3-((2S,4R)-1-(2-(3-carbamoyl-1H-indazol-1-yl)acetyl)-4-fluoropyrrolidine-2-carboxamido)-2-fluorophenyl)-1H-benzo[d]imidazole-4-carboxylate]",> 10000
2,"COC(=O)c1cc(-c2cccc(NC(=O)[C@@H]3C[C@@H](F)CN3C(=O)Cn3nc(C(N)=O)c4ccccc43)c2F)cc2[nH]c(N)nc12 [Compound 76, methyl 2-amino-6-(3-((2S,4R)-1-(2-(3-carbamoyl-1H-indazol-1-yl)acetyl)-4-fluoropyrrolidine-2-carboxamido)-2-fluorophenyl)-1H-benzo[d]imidazole-4-carboxylate]",< 1000
3,"NC(=O)c1nn(CC(=O)N2C[C@H](F)C[C@H]2C(=O)Nc2cccc(-c3cc(C(=O)O)c4nc(N)[nH]c4c3)c2F)c2ccccc12 [Compound 77, 2-Amino-6-(3-((2S,4R)-1-(2-(3-carbamoyl-1H-indazol-1-yl)acetyl)-4-fluoropyrrolidine-2-carboxamido)-2-fluorophenyl)-1H-benzo[d]imidazole-4-carboxylic acid hydrochloride]",1000 to 10000
4,"NC(=O)c1cc(O)cc(CC(=O)N2C[C@H](F)C[C@H]2C(=O)Nc2cccc(-c3ccccc3Cl)c2F)c1 [Compound 78, (2S,4R)-1-(2-(3-carbamoyl-5-hydroxyphenyl)acetyl)-N-(2′-chloro-2-fluoro-[1,1′-biphenyl]-3-yl)-4-fluoropyrrolidine-2-carboxamide]",< 1000
5,"CC(=O)c1nn(CC(=O)N2C[C@H](F)C[C@H]2C(=O)Nc2cccc(-c3cc(C(=O)O)c4nc[nH]c4c3)c2F)c2ccccc12 [Compound 80, 6-(3-((2S,4R)-1-(2-(3-acetyl-1H-indazol-1-yl)acetyl)-4-fluoropyrrolidine-2-carboxamido)-2-fluorophenyl)-1H-benzo[d]imidazole-4-carboxylic acid]",< 1000
6,"COC(=O)Nc1nc2ccc(-c3cccc(NC(=O)[C@@H]4C[C@@H](F)CN4C(=O)Cn4nc(C(C)=O)c5ccccc54)c3F)c(Cl)c2[nH]1 [Compound 81, methyl (6-(3-((2S,4R)-1-(2-(3-acetyl-1H-indazol-1-yl)acetyl)-4-fluoropyrrolidine-2-carboxamido)-2-fluorophenyl)-7-chloro-1H-benzo[d]imidazol-2-yl)carbamate]",< 1000
7,"CC(=O)c1nn(CC(=O)N2C[C@H](F)C[C@H]2C(=O)Nc2cccc(-c3ccc4c(c3)CCC(=O)N4)c2F)c2ccccc12 [Compound 82, (2S,4R)-1-(2-(3-acetyl-1H-indazol-1-yl)acetyl)-4-fluoro-N-(2-fluoro-3-(2-oxo-1,2,3,4-tetrahydroquinolin-6-yl)phenyl)pyrrolidine-2-carboxamide]",< 1000
8,"CC(=O)c1nn(CC(=O)N2C[C@H](F)C[C@H]2C(=O)Nc2cccc(-c3ccc4nccnc4c3)c2F)c2ccccc12 [Compound 83, (2S,4R)-1-(2-(3-acetyl-1H-indazol-1-yl)acetyl)-4-fluoro-N-(2-fluoro-3-(quinoxalin-6-yl)phenyl)pyrrolidine-2-carboxamide]",< 1000
9,"CC(=O)c1nn(CC(=O)N2C[C@H](F)C[C@H]2C(=O)Nc2cccc(-c3ccc4ncn(CCN)c4c3Cl)c2F)c2ccccc12 [Compound 84, (2S,4R)-1-(2-(3-acetyl-1H-indazol-1-yl)acetyl)-N-(3-(1-(2-aminoethyl)-7-chloro-1H-benzo[d]imidazol-6-yl)-2-fluorophenyl)-4-fluoropyrrolidine-2-carboxamide]",1000 to 10000
10,"CC(=O)c1nn(CC(=O)N2C[C@H](F)C[C@H]2C(=O)Nc2cccc(-c3ccc4[nH]ccc4c3)c2F)c2ccccc12 [Compound 85, (2S,4R)-1-(2-(3-acetyl-1H-indazol-1-yl)acetyl)-4-fluoro-N-(2-fluoro-3-(1H-indol-5-yl)phenyl)pyrrolidine-2-carboxamide]",< 1000
11,"CC(=O)c1nn(CC(=O)N2[C@@H]3C[C@@H]3C[C@H]2C(=O)Nc2cccc(-c3cc(Cl)c4[nH]ccc4c3)c2F)c2ccccc12 [Compound 86, (1R,3S,5R)-2-(2-(3-acetyl-1H-indazol-1-yl)acetyl)-N-(3-(7-chloro-1H-indol-5-yl)-2-fluorophenyl)-2-azabicyclo[3.1.0]hexane-3-carboxamide]",> 10000
12,"NC(=O)c1nn(CC(=O)N2C[C@H](F)C[C@H]2C(=O)Nc2cccc(-c3ccc4c(c3)NC(=O)C4)c2F)c2ccccc12 [Compound 88, 1-(2-((2S,4R)-4-fluoro-2-((2-fluoro-3-(2-oxoindolin-6-yl)phenyl)carbamoyl)pyrrolidin-1-yl)-2-oxoethyl)-1H-indazole-3-carboxamide]",< 1000
13,"N#CNC(=O)c1ccc(Cl)c(-c2cccc(NC(=O)[C@@H]3C[C@@H](F)CN3C(=O)Cn3nc(C(N)=O)c4ccccc43)c2F)c1 [Compound 89, 1-(2-((2S,4R)-2-((2′-chloro-5′-(cyanocarbamoyl)-2-fluoro-[1,1′-biphenyl]-3-yl)carbamoyl)-4-fluoropyrrolidin-1-yl)-2-oxoethyl)-1H-indazole-3-carboxamide]",< 1000
14,"NC(=O)c1nn(CC(=O)N2C[C@H](F)C[C@H]2C(=O)Nc2cccc(-c3cc(Cl)c4[nH]ccc4c3)c2F)c2ccccc12 [Compound 90, 1-(2-((2S,4R)-2-((3-(7-chloro-1H-indol-5-yl)-2-fluorophenyl)carbamoyl)-4-fluoropyrrolidin-1-yl)-2-oxoethyl)-1H-indazole-3-carboxamide]",< 1000
